Results: US7579371B2, “Methods of using [3.2.0] heterocyclic compounds and analogs thereof” (Nereus Pharmaceuticals, Inc., priority 2004, dated 2009)
Several values for one entry are separate records, joined by “and”; a condition that tells them apart may be missing. Equal values may be shown once. Read-outs that look alike come from different tables or passages of the source. Peptide text beside a SMILES is read from it. * marks the point of attachment. Cbz = O=C(OCc1ccccc1)*

Legend:
MES-SA/Dx5 = experiment: Cell growth inhibition assay (resazurin, 48 h); conditions: for EC50: MES-SA/Dx5, 48 h
Protocol: (§1) Concentrations ranging from 6.32 μM to 2 nM were tested for II-2 and II-4.
The multidrug resistant MES-SA/Dx5 tumor cell line was derived from the human uterine sarcoma MES-SA tumor cell line and expresses elevated P-Glycoprotein (P-gp), an ATP dependent efflux pump.

RPMI 8226 = experiment: Cell growth inhibition assay (resazurin, 48 h); conditions: RPMI 8226
Protocol: RPMI 8226 (CCL-155), HT-29 (HTB-38), and B16-F10 (CRL-6475) cells were purchased from ATCC. RPMI 8226 cells were maintained in RPMI 1640 media supplemented with 10% (v/v) FBS, 2 mM L-glutamine, 1 mM sodium pyruvate and Penicillin/Streptomycin at 100 IU/ml and 100 μg/ml, respectively. HT-29 cells were maintained in McCoys 5A supplemented with 10% (v/v) FBS, 2 mM L-glutamine, 1 mM sodium pyruvate, 1% (v/v) non-essential amino acids, 10 mM HEPES and Penicillin/Streptomycin at 100 IU/ml and 100 μg/ml, respectively. B16-F10 cells were maintained in DMEM supplemented with 10% (v/v) FBS, 2 mM L-glutamine, 10 mM HEPES and Penicillin/Streptomycin at 100 IU/ml and 100 μg/ml, respectively.
RPMI 8226 cells were seeded at 2×10^4 cells/well in 90 μl RPMI media containing 10% (v/v) FBS or 1% (v/v) FBS into 96 well black-walled, clear-bottom tissue culture plates. […] Formulae II-16, II-17 and Formula II-18 were serially diluted in media containing 1% or 10% FBS and added in triplicate to the test wells. […] The final concentration of Formula II-18 ranged from 2 μM to 630 pM.

[1] = target: rabbit muscle 20S proteasome, chymotrypsin-like activity (Oryctolagus cuniculus, UniProt G1T4Q9); experiment: Chymotrypsin-like activity of purified rabbit muscle 20S proteasome (suc-LLVY-AMC); type: biochemical
Protocol: This peptide substrate is specific for the chymotrypsin-like enzyme activity of the proteasome.
Omuralide was prepared as a 10 mM stock in DMSO and stored in 5 μL aliquots at −80° C. […] The assay measures the hydrolysis of Suc-LLVY-AMC into Suc-LLVY and AMC. The released coumarin (AMC) was measured fluorometrically by using λex=390 nm and λem=460 nm. The assays were performed in a microtiter plate (Corning 3904), and followed kinetically with measurements every five minutes. The instrument used was a Thermo Lab Systems Fluoroskan, with the incubation chamber set to 37° C. The assays were performed according to the manufacturer's protocol, with the following changes. The proteasome was activated as described with SDS, and held on ice prior to the assay. […] Ten microliters of each dose were added in triplicate to the assay plate, and 190 μL of the activated proteasome was added and mixed. The samples were pre-incubated in the Fluoroskan for 5 minutes at 37° C. Substrate was added and the kinetics of AMC were followed for one hour.

[2] = target: rabbit muscle 20S proteasome, trypsin-like activity (Oryctolagus cuniculus, UniProt G1SWK8); experiment: Trypsin-like activity of purified rabbit 20S proteasome (Boc-LRR-AMC)
RAW264.7 cells [3] = conditions: Tang et al., Infect Immun 67:3055 (1999); read-out: EC50 in the LeTx assay; cited from earlier work
U266 = experiment: Cell growth inhibition assay (resazurin, 48 h); type: cell-based; conditions: Homo sapiens, U-266, 48 h, U266, 48 h; read-out: EC50
NF-κB = experiment: NF-κB-mediated luciferase reporter gene assay, HEK293 NF-κB/Luc cells, TNF-α stimulation; type: cell-based; conditions: Homo sapiens, HEK293, 1 hr pretreatment, 6 hours TNF-α; read-out: EC50, NF-κB-mediated luciferase activity
Protocol: The HEK293 NF-κB/luciferase reporter cell line is a derivative of the human embryonic kidney cell line (ATCC; CRL-1573) and carries a luciferase reporter gene under the regulation of 5× NF-κB binding sites. […] When performing the luciferase assay, the DMEM basal medium was replaced with phenol-red free DMEM basal medium and the G418 was omitted.
For NF-κB-mediated luciferase assays, HEK293 NF-κB/luciferase cells were seeded at 1.5×10^4 cells/well in 90 μl phenol-red free DMEM complete medium into Corning 3917 white opaque-bottom tissue culture plates. For Formulae II-2, II-4, II-5A and II-18, a 400 μM starting dilution was made in 100% DMSO and this dilution was used to generate an 8-point half log dilution series. […] For formula II-20, a 2.5 mM or 8 mM starting dilution was made in 100% DMSO and the final test concentrations ranged from 6.3 μM to 2.0 nM or 20 μM to 6.3 nM respectively. The plates were returned to the incubator for 1 hour. After 1 hr pretreatment, 10 μl of a 50 ng/ml TNF-α solution, prepared in the phenol-red free DMEM medium was added, and the plates were incubated for an additional 6 hours.
At the end of the TNF-α stimulation, 100 μl of Steady Lite HTS luciferase reagent (Packard Bioscience) was added to each well and the plates were left undisturbed for 10 min at room temperature before measuring the luciferase activity. The relative luciferase units (RLU) were measured by using a Fusion microplate fluorometer (Packard Bioscience).
NF-κB inducible luciferase activity was measured at 6 hours.

PC-3 = experiment: Cell growth inhibition assay (resazurin, 48 h); conditions: Homo sapiens, PC-3, 48 h
[4] = target: T1, 20S proteasome chymotrypsin-like activity in PC-3 cells (Homo sapiens, UniProt P28074); experiment: Chymotrypsin-like activity of 20S proteasomes in treated PC-3 cells; type: cell-based; conditions: 1 hr
T1 construct: PC-3 (ATCC, CRL-1435), the human prostate cancer cell line; host or cells: PC-3
T1 sequence (P28074 60-263): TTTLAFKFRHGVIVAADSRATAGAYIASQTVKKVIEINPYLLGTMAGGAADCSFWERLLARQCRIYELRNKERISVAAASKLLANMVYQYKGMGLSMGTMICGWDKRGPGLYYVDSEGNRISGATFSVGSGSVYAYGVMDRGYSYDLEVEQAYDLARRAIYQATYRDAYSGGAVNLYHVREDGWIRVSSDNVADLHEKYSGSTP
Protocol: PC-3 (ATCC, CRL-1435), the human prostate cancer cell line, was cultured in F12K medium supplemented with 2 mM L-glutamine, 100 units/ml penicillin, 100 μg/ml streptomycin and 10% heat inactivated fetal bovine serum at 37° C., 5% CO2 and 95% humidified air. […] DMSO was used as the vehicle control at a final concentration of 0.1%. Following 1 hr incubation of PC-3 cells with the compounds, the cells were washed 3× with ice-cold 1× Dulbecco's Phosphate-Buffered Saline (DPBS, Mediatech, Herndon, Va.). […] Cell debris was pelleted by centrifugation at 14,000 rpm for 10 min, 4° C. and supernatants (=cell lysates) were transferred to a new tube. Protein concentration was determined by the BCA protein assay kit (Pierce Biotechnology, Rockford, Ill.). […] The released coumarin (AMC) was measured fluorometrically by using λex=390 nm and λem=460 nm. The assay was performed in a microtiter plate (Corning 3904) and followed kinetically with measurements every five minutes for 2 hr. The total amount of protein used for each assay was 20 μg. The final concentration of Suc-LLVY-AMC and DMSO was 20 μM and 0.2%, respectively. Results are presented as the percent inhibition of the 20S proteasome chymotrypsin-like activity relative to the DMSO control.

NCI-H292 = experiment: Cell growth inhibition assay (resazurin, 48 h); type: cell-based, human; conditions: Homo sapiens, NCI-H292, 48 h
HL-60/MX2 = experiment: Cell growth inhibition assay (resazurin, 48 h); conditions: HL-60/MX2, 48 h
Protocol: The DNA binding agent Mitoxantrone was included as a control, as HL-60/MX2 cells are reported to be resistant to this chemotherapeutic agent (Harker W. G. et al. 1989).
as §1
HL-60/MX2 is a multidrug resistant tumor cell line derived from the human promyelocytic leukemia cell line, HL-60 and expresses reduced topoisomerase II activity. […] Mitoxantrone, the topoisomerase II targeting agent was included as a control.

Stability in solution = type: physicochemical
Excerpt: Compound VI-1B: UV (Acetonitrile/H2O) λmax 235 (sh) nm; ESMS, m/z 585.2 (M+H)^+.

RAW264.7 cells [5] = experiment: cells; conditions: Mus musculus, RAW264.7, read-out: viability, compound + LeTx

rabbit muscle 20S proteasome, trypsin-like activity, sequence (G1SWK8 1-271): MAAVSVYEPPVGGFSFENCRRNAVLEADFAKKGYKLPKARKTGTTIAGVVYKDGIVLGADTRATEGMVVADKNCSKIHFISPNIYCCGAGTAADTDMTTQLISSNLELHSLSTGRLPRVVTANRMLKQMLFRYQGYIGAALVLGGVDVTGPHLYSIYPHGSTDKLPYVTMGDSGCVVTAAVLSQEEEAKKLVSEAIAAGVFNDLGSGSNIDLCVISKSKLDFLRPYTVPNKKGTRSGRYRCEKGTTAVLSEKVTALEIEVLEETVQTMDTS
rabbit muscle 20S proteasome, chymotrypsin-like activity, sequence (G1T4Q9 1-263): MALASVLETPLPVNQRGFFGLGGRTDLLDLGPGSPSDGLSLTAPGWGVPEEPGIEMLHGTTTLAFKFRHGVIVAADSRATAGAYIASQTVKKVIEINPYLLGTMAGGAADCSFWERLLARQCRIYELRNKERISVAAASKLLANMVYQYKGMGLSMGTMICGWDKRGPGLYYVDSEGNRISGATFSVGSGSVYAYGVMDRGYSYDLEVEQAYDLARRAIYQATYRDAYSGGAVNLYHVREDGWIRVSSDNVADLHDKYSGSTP

With `CC(=O)O[C@H]1C(=O)[C@@]2(C)[C@H]([C@H](OC(=O)c3ccccc3)[C@]3(O)C[C@H](OC(=O)[C@H](O)[C@@H](NC(=O)c4ccccc4)c4ccccc4)C(C)=C1C3(C)C)[C@]1(OC(C)=O)CO[C@@H]1C[C@@H]2O` [Paclitaxel, reference compound] the “% cytotoxicity” value (MES-SA/Dx5) was 78 ± 1%.
In the case of `C[C@@]12OC(=O)[C@]1([C@@H](O)[C@@H]1C=CCCC1)NC(=O)[C@@H]2CCBr` [Formula II-18], the “% cytotoxicity” value (RPMI 8226) is reported as 94, 94%.
With `C[C@@]12OC(=O)[C@]1(C(=O)C1=CC(O)CCC1)NC(=O)[C@]2(C)CCCl` (some centres unmarked) [Formula II-31] the EC50 [1] was > 20000 nM.
In the case of `C[C@@]12OC(=O)[C@]1([C@@H](O)[C@H]1CCC[C@@H]3O[C@H]13)NC(=O)[C@@H]2CCCl` [Formula II-5B], the EC50 [2] is reported as 762 nM and 716 nM.
For `CC(C)C[C@@H](C=O)NC(=O)[C@H](CC(C)C)NC(=O)[C@H](CC(C)C)NC(=O)OCc1ccccc1` [MG132] (Cbz-Leu-Leu-Leu-aldehyde), the EC50 (RAW264.7 cells [3]) is given as 3000 nM.
In the case of `CC[C@H]1C(=O)N[C@@]2([C@@H](O)C3CCCCC3)C(=O)O[C@@]12C` [Formula II-3], the EC50 (U266) is reported as > 20000 nM, the EC50 (MES-SA/Dx5; Homo sapiens) is reported as > 20000 nM and the EC50 (NF-κB) is reported as > 20000 nM. The EC50 (PC-3) was > 20000 nM.
With `CC[C@H]1C(=O)N[C@@]2([C@@H](O)[C@@H]3C=CCCC3)C(=O)O[C@@]12C` [Formula II-17] the “% inhibition of the chymotrypsin-like activity of 20S proteasomes in PC-3 cell lysates” value ([4]; 100 nM) was 26%, the inhibition at 0.01 µM ([4]; PC-3, read-out: % inhibition of the chymotrypsin-like activity of 20S proteasomes in PC-3 cell lysates, 10 nM) was 16% and the inhibition at 0.1 µM ([4]; PC-3, read-out: % inhibition of the chymotrypsin-like activity of 20S proteasomes in PC-3 cell lysates, 100 nM) was 26%. It also gave an inhibition at 1 µM ([4]; PC-3, read-out: % inhibition of the chymotrypsin-like activity of 20S proteasomes in PC-3 cell lysates, 1,000 nM) of 49% and an inhibition at 10 µM ([4]; PC-3, read-out: % inhibition of the chymotrypsin-like activity of 20S proteasomes in PC-3 cell lysates, 10,000 nM) of 79%.
With `C[C@@]12OC(=O)[C@]1([C@@H](O)[C@H]1CCC[C@H]3O[C@@H]13)NC(=O)[C@@H]2CCCl` (single isomer, unassigned) [Formula II-5A] the EC50 [2] was 87 nM.
With `C[C@@]12OC(=O)[C@]1([C@@H](O)C1CCCCC1)NC(=O)[C@@H]2CCBr` [Formula II-4] the EC50 (NCI-H292) was 213 nM, the EC50 (NCI-H292; read-out: EC50) was 192 nM and the EC50 (U266) was 39 nM. For the same compound, the EC50 (MES-SA/Dx5; Homo sapiens) was 178 nM and the EC50 (MES-SA/Dx5) was 93 nM.
For `C[C@@]12OC(=O)[C@]1([C@@H](O)[C@H]1CCC[C@H](Cl)[C@H]1O)NC(=O)[C@@H]2CCCl` [Formula IV-3C], the EC50 (NF-κB) was > 20000 nM.
With `O=C1c2c(O)ccc(O)c2C(=O)c2c(NCCNCCO)ccc(NCCNCCO)c21` [Mitoxantrone] the EC50 (HL-60/MX2) was 827 nM and 1340 nM and 1170 nM and the EC50 (HL-60/MX2; Homo sapiens, HL60/MX2, 48 h) was 1410 nM.
For `C[C@]1(O)[C@@H](CCCl)C(=O)N[C@]1(C(=O)SCC(NC(=O)CCC(N)C(=O)O)C(=O)NCC(=O)O)[C@@H](O)[C@@H]1C=CCCC1` (some centres unmarked) [Formula II-48], the stability in solution (Stability in solution) was “unstable in solution”.
For `CC(C)[C@H](O)[C@@]12NC(=O)[C@H](C)[C@@H]1OC2=O` [Omuralide, reference compound], the “% inhibition of the chymotrypsin-like activity of 20S proteasomes in PC-3 cell lysates” value ([4]; 100 nM) was 36% and the viability at 1 µM (RAW264.7 cells [5]) was 37%.
`C[C@@]12OC(=O)[C@]1([C@@H](O)C1CCCCC1)NC(=O)[C@@H]2CCCl` [Formula II-2] showed an EC50 (NCI-H292) of 395 nM, an EC50 (NCI-H292; read-out: EC50) of 322 nM and an EC50 (MES-SA/Dx5; Homo sapiens) of 220 nM. The EC50 (MES-SA/Dx5) was 138 nM and the EC50 (HL-60/MX2; Homo sapiens, HL60/MX2, 48 h) was 142 nM.
For `CC(=O)N[C@@H](CSC(=O)[C@]1([C@@H](O)C(C)C)NC(=O)[C@H](C)[C@@H]1O)C(=O)O` [Lactacystin], the EC50 (RAW264.7 cells [3]) is given as 3000 nM.
